Active and inactive are the calls of the source. The calls are words filed in the database; no cut-off is given here.
Legend:
[1] = Inhibition of Staphylococcus aureus TMK assessed as decrease in ATP production using dTDP and ADP as substrate after 3.5 hrs by luciferin/luciferase based luminescence analysis
Staphylococcus aureus [2] = assay: Antibacterial activity against methicillin-resistant and quinolone-resistant Staphylococcus aureus ARC 517 assessed as growth inhibition by broth microdilution method; type: functional
[3] = Octanol-sodium phosphate buffer partition coefficient, log D of the compound at pH 7.4 by shake-flask method
Staphylococcus aureus [4] = assay: Antibacterial activity against Staphylococcus aureus ARC 516 assessed as growth inhibition by broth microdilution method; type: functional
[5] = Retention time of the compound by LC-MS method; type: physicochemical
[6] = Fraction unbound in human plasma at 10 uM after 5 hrs by rapid equilibrium dialysis method; type: ADME, cell-free
Streptococcus pneumoniae = assay: Antibacterial activity against Streptococcus pneumoniae ARC 2481 assessed as growth inhibition by broth microdilution method; type: functional
[7] = Fraction unbound in mouse plasma at 10 uM after 5 hrs by rapid equilibrium dialysis method; type: ADME, cell-free
Enterococcus faecium = assay: Antibacterial activity against linezolid-resistant Enterococcus faecium ARC 1239 assessed as growth inhibition by broth microdilution method; type: functional
[8] = test system: Staphylococcus epidermidis; assay: Antibacterial activity against Staphylococcus epidermidis ARC 323 assessed as growth inhibition by broth microdilution method; type: functional
[9] = Cytotoxicity against human A549 cells; type: cell-based; conditions: read-out: MIC
[10] = In vivo clearance in Wistar rat at 5 to 10 mg/kg, iv administered as bolus dose; type: ADME, organism-based; set-up: dose 5-10 mg/kg, route intravenous
[11] = Ratio of IC50 for human […] to IC50 for Staphylococcus aureus TMK
Escherichia coli = assay: Antibacterial activity against Escherichia coli ARC 523 assessed as growth inhibition by broth microdilution method; type: functional
Streptococcus pyogenes = assay: Antibacterial activity against Streptococcus pyogenes ARC 2834 assessed as growth inhibition by broth microdilution method; type: functional
Pseudomonas aeruginosa = assay: Antibacterial activity against Pseudomonas aeruginosa ARC 545 assessed as growth inhibition by broth microdilution method; type: functional
Enterococcus faecalis = assay: Antibacterial activity against vancomycin-resistant Enterococcus faecalis ARC 1618 assessed as growth inhibition by broth microdilution method; type: functional
Staphylococcus aureus [12] = assay: Antibacterial activity against Staphylococcus aureus assessed as bacterial killing at 0.5 to 1x MIC measured after 24 hrs; type: functional, organism-based
Staphylococcus aureus [13] = assay: Antibacterial activity against Staphylococcus aureus assessed as bacterial killing; type: functional, organism-based
Staphylococcus aureus [14] = assay: Antibacterial activity against Staphylococcus aureus assessed as log cell killing at greater than and equals to 0.5x MIC measured after 4 hrs; type: functional
Staphylococcus aureus [15] = assay: Antibacterial activity against methicillin-sensitive Staphylococcus aureus ARC 516 in mouse neutropenic thigh infection model assessed as inhibition of progression of bacterial infection at 100 to 200 mg/kg/day, ip administered once daily starting 2 hrs after infection measured 24 hrs after drug dosing; type: functional, organism-based
Staphylococcus aureus [16] = assay: Antibacterial activity against methicillin-sensitive Staphylococcus aureus ARC 516 in mouse neutropenic thigh infection model assessed as reduction in number of colony-forming units at 400 mg/kg/day, ip administered bid every 12 hrs as equal divided dose starting 2 hrs after infection measured 24 hrs after drug dosing relative to control; type: functional; conditions: route intraperitoneal
[17] = fT>MIC in mouse neutropenic thigh infection model infected with methicillin-sensitive Staphylococcus aureus ARC 516; set-up: species or system Thigh muscle

Retention_time [5] [min]	SMILES	IC50 [1] [nM]	MIC (Staphylococcus aureus [2]) [µg/mL]	logD [3]	MIC (Staphylococcus aureus [4]) [µg/mL]	other results
	CC[C@@H](c1ccc(C(=O)O)c(Oc2cccc(Cl)c2)c1)N1CCC[C@H](n2cc(C)c(=O)[nH]c2=O)C1	18	4	0.22	2	
2.16	Cc1cn([C@H]2CCCN(Cc3cccc(Oc4cccc(Cl)c4)c3C#N)C2)c(=O)[nH]c1=O	1190				
2.34	Cc1cn([C@H]2CCCN(Cc3cccc(Oc4cc(F)cc(Cl)c4)c3Br)C2)c(=O)[nH]c1=O	581				
2.32	CCOc1c(CN2CCC[C@H](n3cc(C)c(=O)[nH]c3=O)C2)cccc1Oc1cc(F)cc(Cl)c1	625				
	CCC[C@@H](c1ccc(C(=O)O)c(Oc2cccc(Cl)c2)c1OC)N1CCC[C@H](n2cc(C)c(=O)[nH]c2=O)C1	4	4	0.13	8	fraction unbound at 5 h, 10 µM [6]: 0.065
2.5	CCCc1c(CN2CCC[C@H](n3cc(C)c(=O)[nH]c3=O)C2)cccc1Oc1cc(F)cc(Cl)c1	67400				
	CCC[C@@H](c1ccc(C(=O)O)c(Oc2cccc(Cl)c2)c1)N1CCC[C@H](n2cc(C)c(=O)[nH]c2=O)C1	18	4		4	
3.24	CC(C)CC(O)c1ccc(Br)c(F)c1F (stereo unspecified)					
	Cc1cn([C@H]2CCCN([C@H](CC(C)C)c3ccc(C(=O)O)c(Oc4cccc(Cl)c4)c3F)C2)c(=O)[nH]c1=O	1	0.5	0.92	0.25	MIC90 (Streptococcus pneumoniae): 0.13 µg/mL; fraction unbound at 5 h, 10 µM [6]: 0.013; fraction unbound at 5 h, 10 µM [7]: < 0.01; MIC (Enterococcus faecium): 2 µg/mL; MIC [8]: 2 µg/mL; clearance [10]: 84 mL/min/kg; Ratio IC50 [11]: > 25000; MIC90 (Staphylococcus aureus [2]): 2 µg/mL; MIC (Escherichia coli): > 64 µg/mL; MIC90 (Streptococcus pyogenes): 2 µg/mL; MIC (Pseudomonas aeruginosa): > 64 µg/mL; MIC90 (Staphylococcus aureus [4]): 2 µg/mL; MIC (Enterococcus faecalis): 8 µg/mL
2.62	Cc1cn([C@H]2CCCN(C(CC(C)C)c3ccc(C#N)c(Oc4cccc(Cl)c4)c3F)C2)c(=O)[nH]c1=O (stereo partly specified)					
2.3	Cc1c(CN2CCC[C@H](n3cc(C)c(=O)[nH]c3=O)C2)cccc1Oc1cc(F)cc(Cl)c1	9260				
2.29	CCC(c1ccc(C(=O)O)c(Oc2cccc(Cl)c2)c1OC)N1CCC[C@H](n2cc(C)c(=O)[nH]c2=O)C1 (stereo partly specified)					
	Cc1cn([C@H]2CCCN([C@H](CC(C)(C)C)c3ccc(C(=O)O)c(Oc4cccc(Br)c4)c3)C2)c(=O)[nH]c1=O	0.8				MIC90 (Streptococcus pneumoniae): 0.03 µg/mL; fraction unbound at 5 h, 10 µM [6]: 0.032; fraction unbound at 5 h, 10 µM [7]: < 0.003; MIC (Enterococcus faecium): 0.25 µg/mL; MIC [8]: 2 µg/mL; MCC [9]: > 64 µg/mL; clearance [10]: 42 mL/min/kg; Ratio IC50 [11]: > 25000; MIC90 (Staphylococcus aureus [2]): 1 µg/mL; MIC (Escherichia coli): > 64 µg/mL; MIC90 (Streptococcus pyogenes): 0.5 µg/mL; MIC (Pseudomonas aeruginosa): > 64 µg/mL; MIC90 (Staphylococcus aureus [4]): 1 µg/mL; MIC (Enterococcus faecalis): 1 µg/mL
	CC[C@H](c1ccc(C(=O)O)c(Oc2cccc(Cl)c2)c1)N1CCC[C@H](n2cc(C)c(=O)[nH]c2=O)C1	14	2	0.22	2	Activity (Staphylococcus aureus [12]): inactive; Activity (Staphylococcus aureus [13]): Dose-dependent effect; LCK (Staphylococcus aureus [14]): >3
1.23	O=Cc1cccc(O)c1F					
2	Cc1cn([C@H]2CCCN(Cc3cccc(Oc4cccc(Cl)c4)c3F)C2)c(=O)[nH]c1=O	86				
1.99	Cc1cn([C@H]2CCCN(C(CC(C)C)c3ccc(C(=O)O)c(Oc4cccc(Cl)c4)c3F)C2)c(=O)[nH]c1=O (stereo partly specified)					
2.41	CCC(c1ccc(Br)c(Oc2cccc(Cl)c2)c1OC)N1CCC[C@H](n2cc(C)c(=O)[nH]c2=O)C1 (stereo partly specified)					
2.31	Cc1cn([C@H]2CCCN(Cc3cccc(Oc4cc(F)cc(Cl)c4)c3Cl)C2)c(=O)[nH]c1=O	779				
3	COc1c(CN2CCC[C@H](n3cc(C)c(=O)[nH]c3=O)C2)cccc1Oc1cc(F)cc(Cl)c1	474				
	Cc1cn([C@H]2CCCN(Cc3ccc(C(=O)O)c(Oc4cccc(Cl)c4)c3)C2)c(=O)[nH]c1=O	73	32		32	
1.93	Cc1cn([C@H]2CCCN(C(CC(C)C)c3ccc(C#N)c(F)c3F)C2)c(=O)[nH]c1=O (stereo partly specified)					
	Cc1cn([C@H]2CCCN(Cc3cccc(Oc4cc(F)cc(Cl)c4)c3)C2)c(=O)[nH]c1=O	2060				
3.27	CCC(O)c1ccc(Br)c(Oc2cccc(Cl)c2)c1OC (stereo unspecified)					
3.28	COc1c(C=O)ccc(Br)c1Oc1cccc(Cl)c1					
2.88	O=Cc1cccc(Oc2cccc(Cl)c2)c1F					
	Cc1cn([C@H]2CCCN(Cc3cccc(Oc4cccc(Cl)c4)c3)C2)c(=O)[nH]c1=O	1170				
	CCC[C@H](c1ccc(C(=O)O)c(Oc2cccc(Cl)c2)c1)N1CCC[C@H](n2cc(C)c(=O)[nH]c2=O)C1	8	1		1	
3.1	Cc1cn([C@H]2CCCN(C(CC(C)C)c3ccc(Br)c(F)c3F)C2)c(=O)[nH]c1=O (stereo partly specified)					

SMILES	Retention_time [5] [min]	IC50 [1] [nM]	MIC (Staphylococcus aureus [2]) [µg/mL]	logD [3]	MIC (Staphylococcus aureus [4]) [µg/mL]	other results
CC[C@@H](c1ccc(C(=O)O)c(Oc2cccc(Cl)c2)c1F)N1CCC[C@H](n2cc(C)c(=O)[nH]c2=O)C1	1.72	3	1	0.11	4	fraction unbound at 5 h, 10 µM [6]: 0.011
COc1c(CN2CCC[C@H](n3cc(C)c(=O)[nH]c3=O)C2)ccc(C(=O)O)c1Oc1cccc(Cl)c1	2.17	10	16	-0.77	8	
CCC[C@H](c1ccc(C(=O)O)c(Oc2cccc(Cl)c2)c1OC)N1CCC[C@H](n2cc(C)c(=O)[nH]c2=O)C1	2.18	30	> 16	0.08	> 16	fraction unbound at 5 h, 10 µM [6]: 0.034
CC[C@@H](c1ccc(C(=O)O)c(Oc2cccc(Cl)c2)c1OC)N1CCC[C@H](n2cc(C)c(=O)[nH]c2=O)C1	1.65	3	2	-0.02	4	MIC90 (Streptococcus pneumoniae): 2 µg/mL; fraction unbound at 5 h, 10 µM [6]: 0.11; fraction unbound at 5 h, 10 µM [7]: 0.011; MIC (Enterococcus faecium): 8 µg/mL; MIC [8]: 4 µg/mL; MCC [9]: > 64 µg/mL; clearance [10]: 73 mL/min/kg; Ratio IC50 [11]: > 25000; MIC90 (Staphylococcus aureus [2]): 4 µg/mL; MIC (Escherichia coli): > 64 µg/mL; MIC90 (Streptococcus pyogenes): 4 µg/mL; MIC (Pseudomonas aeruginosa): > 64 µg/mL; MIC90 (Staphylococcus aureus [4]): 4 µg/mL; MIC (Enterococcus faecalis): > 8 µg/mL
Cc1cn([C@H]2CCCN(Cc3ccc(C(=O)O)c(Oc4cccc(Cl)c4)c3F)C2)c(=O)[nH]c1=O	1.89	12	16	-0.59	32	
CC[C@H](c1ccc(C(=O)O)c(Oc2cccc(Cl)c2)c1OC)N1CCC[C@H](n2cc(C)c(=O)[nH]c2=O)C1	1.55	69	> 16	-0.13	> 16	fraction unbound at 5 h, 10 µM [6]: 0.015; fraction unbound at 5 h, 10 µM [7]: 0.006; clearance [10]: 84 mL/min/kg
CCC[C@@H](c1ccc(C(=O)O)c(Oc2cccc(Cl)c2)c1F)N1CCC[C@H](n2cc(C)c(=O)[nH]c2=O)C1	1.86	3	0.5	0.51	1	fraction unbound at 5 h, 10 µM [6]: 0.007; fraction unbound at 5 h, 10 µM [7]: 0.007; clearance [10]: 18 mL/min/kg
CCC[C@H](c1ccc(C(=O)O)c(Oc2cccc(Cl)c2)c1F)N1CCC[C@H](n2cc(C)c(=O)[nH]c2=O)C1	1.84	6	1	0.53	2	fraction unbound at 5 h, 10 µM [6]: < 0.01; clearance [10]: 64 mL/min/kg
CC[C@H](c1ccc(C(=O)O)c(Oc2cccc(Cl)c2)c1F)N1CCC[C@H](n2cc(C)c(=O)[nH]c2=O)C1	1.75	2	2	0.12	2	fraction unbound at 5 h, 10 µM [6]: < 0.01; clearance [10]: 119 mL/min/kg
Cc1cn([C@H]2CCCN([C@@H](CC(C)C)c3ccc(C(=O)O)c(Oc4cccc(Cl)c4)c3F)C2)c(=O)[nH]c1=O	2	1	0.5	0.57	0.5	MIC90 (Streptococcus pneumoniae): 0.13 µg/mL; fraction unbound at 5 h, 10 µM [6]: 0.007; fraction unbound at 5 h, 10 µM [7]: 0.005; MIC (Enterococcus faecium): 2 µg/mL; MIC [8]: 4 µg/mL; clearance [10]: 38 mL/min/kg; Ratio IC50 [11]: > 25000; inhibition (Staphylococcus aureus [15]): Active; MIC (Escherichia coli): > 64 µg/mL; MIC (Streptococcus pyogenes): 2 µg/mL; MIC (Pseudomonas aeruginosa): > 64 µg/mL; MIC (Enterococcus faecalis): 4 µg/mL; fold change (FC) (Staphylococcus aureus [16]): 10; fT>MIC [17]: 27%

Reference: ChEMBL document CHEMBL3297666, “Antibacterial inhibitors of Gram-positive thymidylate kinase: structure-activity relationships and chiral preference of a new hydrophobic binding region” (J Med Chem, 2014)
